Activity calls are given as the source filed them.
Key:
[1] = biological target: T1, Sphingosine 1-phosphate receptor 2 (Homo sapiens, UniProt O95136); test: Dose Response Cell Based Assay for Agonists of the S1P2 Receptor of Purchased Analogues. [Related pubchem assays: 729, 843, 854, 736 ]; type: functional
[2] = biological target: T1, Sphingosine 1-phosphate receptor 2; test: Dose Response Cell Based Assay for Agonists of the S1P2 Receptor. [Related pubchem assays: 729, 736, 843 ]; type: functional
[3] = M. tuberculosis H37Rv growth inhibitors, H37Rv strain (AID 1626); type: functional
[4] = biological target: Troponin, cardiac muscle (Homo sapiens, UniProt P19429+P45379+P63316); test: Fluorescence-based biochemical high throughput dose response assay for activators of the calcium sensitivity of cardiac Regulated Thin Filaments (RTF). [Related pubchem assays (depositor defined):AID493008, AID493018, AID504382, AID504383]; type: protein-complex assay
[5] = biological target: T2, Short transient receptor potential channel 4 (Mus musculus, UniProt Q9QUQ5); test: mouse TRPC4 channel activators, dose response, cell-based, HEK293 TRPC4/mu-opioid, Fluo-4 calcium (AID 434937); type: functional
T2 sequence (Q9QUQ5 whole entry): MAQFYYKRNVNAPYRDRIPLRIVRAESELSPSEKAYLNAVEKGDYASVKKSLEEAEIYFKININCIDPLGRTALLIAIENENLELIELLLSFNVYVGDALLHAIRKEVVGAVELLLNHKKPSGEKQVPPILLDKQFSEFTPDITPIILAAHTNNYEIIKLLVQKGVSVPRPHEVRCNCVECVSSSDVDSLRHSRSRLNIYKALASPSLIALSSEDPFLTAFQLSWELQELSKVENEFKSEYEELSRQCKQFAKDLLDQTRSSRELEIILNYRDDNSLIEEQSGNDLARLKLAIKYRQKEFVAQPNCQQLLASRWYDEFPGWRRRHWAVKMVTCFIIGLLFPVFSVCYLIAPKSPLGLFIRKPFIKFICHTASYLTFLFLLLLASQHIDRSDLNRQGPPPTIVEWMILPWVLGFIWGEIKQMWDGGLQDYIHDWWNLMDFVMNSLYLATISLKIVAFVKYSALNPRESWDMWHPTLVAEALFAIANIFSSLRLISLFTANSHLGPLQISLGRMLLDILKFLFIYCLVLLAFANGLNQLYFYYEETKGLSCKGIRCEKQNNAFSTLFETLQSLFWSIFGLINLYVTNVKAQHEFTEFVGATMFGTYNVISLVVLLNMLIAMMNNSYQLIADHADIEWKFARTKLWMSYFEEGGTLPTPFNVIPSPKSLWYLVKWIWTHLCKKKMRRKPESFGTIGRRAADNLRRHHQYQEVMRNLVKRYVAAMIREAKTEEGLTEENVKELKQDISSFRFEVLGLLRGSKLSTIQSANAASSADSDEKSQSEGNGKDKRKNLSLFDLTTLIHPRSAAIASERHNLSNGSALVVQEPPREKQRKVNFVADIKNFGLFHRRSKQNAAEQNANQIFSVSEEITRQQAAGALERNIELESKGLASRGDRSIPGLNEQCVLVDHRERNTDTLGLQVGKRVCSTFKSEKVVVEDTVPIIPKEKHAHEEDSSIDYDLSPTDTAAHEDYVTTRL

[6] = biological target: T3, NADPH oxidase 1 (Homo sapiens, UniProt Q9Y5S8); type: functional, cell-based
T3 sequence (Q9Y5S8 whole entry): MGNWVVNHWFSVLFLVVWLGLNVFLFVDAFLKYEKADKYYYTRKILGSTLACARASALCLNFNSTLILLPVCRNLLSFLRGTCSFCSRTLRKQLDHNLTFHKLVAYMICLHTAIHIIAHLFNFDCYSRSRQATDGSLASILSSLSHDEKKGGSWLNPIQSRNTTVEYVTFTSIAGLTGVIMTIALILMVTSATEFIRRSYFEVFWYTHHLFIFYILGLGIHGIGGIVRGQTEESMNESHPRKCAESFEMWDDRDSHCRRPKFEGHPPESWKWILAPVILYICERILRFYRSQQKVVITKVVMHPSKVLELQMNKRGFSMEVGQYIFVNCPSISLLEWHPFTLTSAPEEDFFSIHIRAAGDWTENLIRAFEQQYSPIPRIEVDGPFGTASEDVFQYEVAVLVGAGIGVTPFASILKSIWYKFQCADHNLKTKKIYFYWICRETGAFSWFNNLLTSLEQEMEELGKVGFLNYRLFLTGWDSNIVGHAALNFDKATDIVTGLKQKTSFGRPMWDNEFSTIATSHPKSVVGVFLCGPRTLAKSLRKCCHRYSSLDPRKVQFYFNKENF

[7] = test system: Streptococcus; test: Streptococcus pyogenes growth inhibition counter-screen, dose response, counter-screen for streptokinase expression inhibitor project, luminescence, BacTiter-Glo, strain UMAA2166 (AID 2477); type: functional, organism-based
[8] = biological target: T4, Streptokinase A (Streptococcus pyogenes serotype M1, UniProt P10520); test: Absorbance Microorganism-Based Dose Response Follow up to Identify Inhibitors of Streptokinase Expression. [Related pubchem assays: 1677 (Project Summary), 1915, 1914, 1902 (Retest at Dose), 1900 (Counter Screen), 1662 (Primary HTS)]; type: functional, Streptococcus pyogenes M1 GAS
T4 sequence (P10520 whole entry): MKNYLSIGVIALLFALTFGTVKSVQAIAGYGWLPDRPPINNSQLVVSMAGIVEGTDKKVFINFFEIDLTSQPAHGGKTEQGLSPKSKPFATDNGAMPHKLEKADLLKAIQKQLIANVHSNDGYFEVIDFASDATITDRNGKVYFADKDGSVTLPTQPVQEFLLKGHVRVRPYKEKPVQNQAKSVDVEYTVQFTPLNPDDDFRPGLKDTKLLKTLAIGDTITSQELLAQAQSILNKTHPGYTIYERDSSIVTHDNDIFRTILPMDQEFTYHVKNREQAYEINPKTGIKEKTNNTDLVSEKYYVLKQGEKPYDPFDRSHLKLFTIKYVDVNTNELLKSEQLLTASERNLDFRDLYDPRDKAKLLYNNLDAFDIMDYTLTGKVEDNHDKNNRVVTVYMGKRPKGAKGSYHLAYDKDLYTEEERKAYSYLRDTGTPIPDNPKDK

[9] = biological target: T3, NADPH oxidase 1; test: Late-stage luminescence-based cell-based dose response assay to identify inhibitors of NADPH oxidase 1 (NOX1): Purchased analogs 2.; type: functional
[10] = biological target: Epstein-Barr nuclear antigen 1 (Epstein-Barr virus (strain B95-8) (HHV-4) (Human herpesvirus 4), UniProt P03211); test: EBNA-1 inhibitors, dose response, biochemical, fluorescence polarization, 1536-well (AID 2381); design: species or system human gammaherpesvirus 4;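 also: fluorescence polarization of a Cy5 DNA probe bound by EBNA-1 protein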
Chain of Epstein-Barr nuclear antigen 1 (P03211 whole entry): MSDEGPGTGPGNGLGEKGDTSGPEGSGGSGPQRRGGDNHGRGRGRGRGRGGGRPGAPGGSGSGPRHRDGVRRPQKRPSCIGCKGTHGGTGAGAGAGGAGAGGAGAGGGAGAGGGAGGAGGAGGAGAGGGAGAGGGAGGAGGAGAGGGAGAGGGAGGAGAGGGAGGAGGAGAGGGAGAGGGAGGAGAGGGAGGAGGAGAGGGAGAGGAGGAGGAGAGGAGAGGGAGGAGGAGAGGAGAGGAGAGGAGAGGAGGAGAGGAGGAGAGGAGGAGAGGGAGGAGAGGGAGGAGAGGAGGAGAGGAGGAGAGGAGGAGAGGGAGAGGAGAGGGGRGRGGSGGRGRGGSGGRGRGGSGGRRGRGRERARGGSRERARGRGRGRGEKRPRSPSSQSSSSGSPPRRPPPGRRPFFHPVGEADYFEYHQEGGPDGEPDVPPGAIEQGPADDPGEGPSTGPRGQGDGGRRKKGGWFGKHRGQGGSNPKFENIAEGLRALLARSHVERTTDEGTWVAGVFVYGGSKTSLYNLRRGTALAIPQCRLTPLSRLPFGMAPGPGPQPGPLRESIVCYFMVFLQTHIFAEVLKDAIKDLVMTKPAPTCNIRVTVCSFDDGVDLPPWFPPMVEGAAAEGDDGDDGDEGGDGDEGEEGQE

[11] = biological target: Lytic switch protein BZLF1 (Epstein-Barr virus (strain B95-8) (HHV-4) (Human herpesvirus 4), UniProt P03206); test: EBV ZTA inhibitors, dose response, counter-screen for EBNA-1 inhibitor project, biochemical, fluorescence polarization, Epstein-Barr virus, 1536-well (AID 2377); design: species or system human gammaherpesvirus 4;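 also: fluorescence polarization of Cy5-labelled ZRE DNA probe bound by purified Zta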
Chain of Lytic switch protein BZLF1 (P03206 whole entry): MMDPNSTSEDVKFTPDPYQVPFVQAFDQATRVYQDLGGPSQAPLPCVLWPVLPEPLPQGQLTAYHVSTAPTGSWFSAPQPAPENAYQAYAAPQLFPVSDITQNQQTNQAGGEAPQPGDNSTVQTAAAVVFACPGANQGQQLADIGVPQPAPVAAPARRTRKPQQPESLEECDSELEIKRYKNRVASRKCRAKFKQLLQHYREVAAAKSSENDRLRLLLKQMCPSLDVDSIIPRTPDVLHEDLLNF

[12] = Luminescent dose response cell-based high throughput screening assay for inhibitors of the Janus kinase 2 mutant JAK2V617F. [Related pubchem assays: 1446 (Primary screen.), 1521 (Confirmation assay.), 1486 (Counter screen.)]; type: functional
[13] = biological target: Luciferin 4-monooxygenase (Photinus pyralis, UniProt P08659); test: firefly luciferase enzyme inhibitors, dose response, biochemical, luminescence (AID 1891)
Chain of Luciferin 4-monooxygenase (P08659 whole entry): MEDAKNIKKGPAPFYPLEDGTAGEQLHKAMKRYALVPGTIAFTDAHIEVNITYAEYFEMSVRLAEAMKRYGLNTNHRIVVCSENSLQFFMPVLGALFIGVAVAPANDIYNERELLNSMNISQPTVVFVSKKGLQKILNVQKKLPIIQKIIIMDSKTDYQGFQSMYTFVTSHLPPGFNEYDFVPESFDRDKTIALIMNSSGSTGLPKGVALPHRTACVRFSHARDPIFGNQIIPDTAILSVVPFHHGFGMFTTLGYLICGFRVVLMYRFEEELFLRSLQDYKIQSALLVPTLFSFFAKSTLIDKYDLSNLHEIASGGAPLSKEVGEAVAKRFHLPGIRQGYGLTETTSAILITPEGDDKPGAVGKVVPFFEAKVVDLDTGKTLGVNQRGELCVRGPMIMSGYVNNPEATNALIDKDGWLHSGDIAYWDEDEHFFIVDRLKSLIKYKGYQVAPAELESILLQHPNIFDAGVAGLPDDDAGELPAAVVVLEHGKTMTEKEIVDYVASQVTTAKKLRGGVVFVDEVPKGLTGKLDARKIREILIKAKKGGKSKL

[14] = Luminescence Cell-Based Dose Confirmation HTS to Identify Inhibitors of Platelet Dense Granule Release. [Related pubchem assays: 1663 (Primary HTS), 1678 (Summary of Project)]; type: functional
[15] = biological target: T5, High affinity choline transporter 1 (Homo sapiens, UniProt Q9GZV3); test: CHT inhibitors, dose response, cell-based, 5-point CRC, membrane potential dye (AID 504840); type: functional
T5 sequence (Q9GZV3 whole entry): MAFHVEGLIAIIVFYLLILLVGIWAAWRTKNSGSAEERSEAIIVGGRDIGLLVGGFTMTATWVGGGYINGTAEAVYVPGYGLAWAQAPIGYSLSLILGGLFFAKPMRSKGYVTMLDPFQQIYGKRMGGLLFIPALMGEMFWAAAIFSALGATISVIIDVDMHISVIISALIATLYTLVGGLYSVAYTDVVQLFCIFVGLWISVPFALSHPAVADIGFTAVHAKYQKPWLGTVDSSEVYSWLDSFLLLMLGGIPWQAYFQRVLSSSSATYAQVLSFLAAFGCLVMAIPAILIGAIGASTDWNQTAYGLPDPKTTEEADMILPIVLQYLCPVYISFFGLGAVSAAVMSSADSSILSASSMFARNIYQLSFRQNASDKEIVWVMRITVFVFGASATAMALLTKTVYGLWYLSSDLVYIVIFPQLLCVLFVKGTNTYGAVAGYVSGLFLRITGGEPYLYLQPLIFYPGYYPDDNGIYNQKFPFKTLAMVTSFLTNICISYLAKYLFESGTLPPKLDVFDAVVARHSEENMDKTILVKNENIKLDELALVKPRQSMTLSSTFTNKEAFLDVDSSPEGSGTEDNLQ

T1 sequence (O95136 whole entry): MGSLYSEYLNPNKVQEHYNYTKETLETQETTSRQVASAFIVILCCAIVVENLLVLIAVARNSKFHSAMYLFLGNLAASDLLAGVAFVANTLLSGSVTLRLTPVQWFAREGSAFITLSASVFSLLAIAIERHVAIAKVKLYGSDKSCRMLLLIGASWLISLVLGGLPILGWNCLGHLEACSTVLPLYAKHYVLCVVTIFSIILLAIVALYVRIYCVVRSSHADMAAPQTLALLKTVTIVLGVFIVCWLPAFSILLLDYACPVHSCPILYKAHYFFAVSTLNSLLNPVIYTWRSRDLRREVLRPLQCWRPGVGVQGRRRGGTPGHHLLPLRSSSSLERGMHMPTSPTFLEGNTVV

Cc1cc(C(=O)CSc2nnnn2C2CC2)c(C)n1Cc1ccccc1
EC50 [1]: > 30 µM (not active)

O=C1SC(c2ccccc2)=N/C1=C/c1ccco1
EC50 [2]: > 50 µM (not active)

CC(C)(C)C(=O)/C=c1\s/c(=C\c2ccc(-c3ccc([N+](=O)[O-])cc3)o2)c(=O)n1CC(=O)NC(N)=O
IC50 [3]: > 100 µM (active) | EC50 [4]: 565 nM (active) | EC50 [5]: 5.31 µM (active)

COc1ccc(-c2nc(-c3ccccc3)c(-c3ccccc3)[nH]2)cc1O
IC50 [6]: > 17 µM (not active)

COc1ccc(Sc2ccc(NC(=O)c3cccc(Cl)c3)cc2C#N)cc1
EC50 [7]: > 500 µM (not active) | EC50 [8]: 8.99 µM (active)

O=C1Nc2cc(F)ccc2/C1=N/Nc1c(F)c(F)nc(F)c1F
IC50 [9]: > 17 µM (not active)

COc1cc(NC(=O)c2ccc(Br)cc2)c(OC)cc1NC(=O)c1ccccc1
IC50 [10]: 15.4 µM (not active) | IC50 [11]: > 111 µM (not active)

COc1cc2c(cc1OC)-c1cc(N3CCCc4ccccc43)nc(=O)n1CC2
IC50 [12]: > 40 µM (not active) | EC50 [13]: > 112 µM (not active) | EC50 [14]: 3.35 µM (active) | IC50 [15]: 13.2 µM (active)

Source: ChEMBL document CHEMBL1201862, “PubChem BioAssay data set” (2004)
